According to article PMC8966664 (Frontiers in Pharmacology, 2022):

Assays:
RTS-induced liver damage = test: Histological examination (H&E) and scoring of liver damage, modified DeLeve's system; format: in vivo, Sprague Dawley rats; design: key to Central vein endothelial damage / Sinusoidal hemorrhage / Sinusoidal dilation / Coagulative necrosis / Apoptotic bodies / Subendothelial fibrosis / Sinusoid fibrosis / Subendothelial hemorrhage: 0-absent; 1-mild; 2-moderate; 3-severe; conditions: rats
Method: EX and GA were dissolved in distilled water at 37°C for oral administration with the dosage of EX and GA as 500 mg/kg and 50 mg/kg. […] RTS was given following the last dose of distilled water/GA/EX. Detailed dosage regimens are described in Supplementary Figure S2. All rats were sacrificed at 48 h after the last dosing. Serum and liver samples were collected and stored at −80°C until use.
The largest lobe of the liver was sliced, fixed in 10% buffered-neutral formalin for 24 h, and embedded in wax. Sections of 5 µm in thickness were subjected to hematoxylin and eosin staining before being examined. Liver injury (necrosis, endothelial cell damage, and hemorrhage) was evaluated with a LEICA DM5000B Microscope (Leica, Heidelberg, Germany).
Protective effects of EX and GA on RTS-induced hepatotoxicity were also evaluated by histopathological examination. […] The damage of sinusoidal endothelial cells was further measured by the immunofluorescence of RECA-1. […] The degrees of hemorrhage, sinusoidal dilation, and necrosis were assessed and scored (Table 2) according to a modified DeLeve’s system ([Deleve et al., 1999]) as summarized in Supplementary Table S3.

rat CYP3A1 = test: Enzymatic kinetic study with nifedipine in rat liver microsomes; format: biochemical
Method: The mixture was pre-incubated at 37°C for 15 min. […] The supernatant was filtered through a 0.22 µm membrane filter before the LC-MS/MS analysis.
Data are expressed as mean ± SD. The Student’s t test was used for the comparison between two groups. The one-way ANOVA followed with a post hoc Bonferroni’s multiple comparison test was used for the comparison among multiple groups. Toxicokinetic parameters were calculated by noncompartmental methods using WinNonlin version 4.0 (Pharsight, Mountain View, CA, United States). The enzyme kinetic parameters were estimated from the best fit line using least-squares linear regression of the inverse substrate concentration versus the inverse velocity (Lineweaver-Burk plots), and the mean values were used to calculate the Km and Vmax. […] The statistical significance was set as ^* p < 0.05, ^** p < 0.01 or ^*** p < 0.001.

pyrrole-protein adducts = test: Toxicokinetic study: plasma kinetic profile of pyrrole-protein adducts; format: in vivo, Sprague Dawley rats; conditions: rats; GA 50 mg/kg + RTS 30 mg/kg vs RTS group
Method: For the toxicokinetic study, jugular vein cannulation was performed on rats on the day before drug administration. The right jugular vein was cannulated with a polyethylene tube (0.4 mm i.d. × 0.8 mm o.d., SIMS Portex, United Kingdom) for blood sampling. The rats were maintained in individual metabolic cages and fasted overnight with free access to water. […] Saline (0.2 ml) containing 25 units of heparin/mL was injected after each blood sampling for compensation of blood withdrawal. The blood samples were then centrifuged at 3,000 x g for 30 min, and plasma samples were harvested and stored at −20°C until use.
The pyrrole-protein adducts were measured according to our previously developed method ([Lin et al., 2011]; [Ruan et al., 2014]). Briefly, 50 mg liver or 100 µL serum/plasma was mixed with acetone and centrifuged at 900 x g for 10 min. […] After centrifuging at 20,000 x g for 30 min, the supernatants were collected and analyzed by LC-MS/MS according to our previously developed methods ([Ma et al., 2019]; [He et al., 2021a]; [Ma et al., 2021]). […]
Data are expressed as mean ± SD. […] Toxicokinetic parameters were calculated by noncompartmental methods using WinNonlin version 4.0 (Pharsight, Mountain View, CA, United States). […] The inhibition constant (K i ) value of GA was determined by the secondary Lineweaver-Burk plots. […]

[1] = multiple dose (EX 500 mg/kg/day or GA 50 mg/kg/day, 5 consecutive days) + RTS 40 mg/kg, 48 h after last dosing
[2] = single dose (EX 500 mg/kg or GA 50 mg/kg) + RTS 40 mg/kg, 48 h after last dosing

Which results are given for CC1(C)[C@@H](O)CC[C@]2(C)[C@H]3C(=O)C=C4[C@@H]5C[C@@](C)(C(=O)O)CC[C@]5(C)CC[C@@]4(C)[C@]3(C)CC[C@@H]12 [GA, 18β-glycyrrhetinic acid]?
Apoptotic bodies (RTS-induced liver damage; EX, GA or RTS alone): 0; Central vein endothelial damage (RTS-induced liver damage; EX, GA or RTS alone): 0; Coagulative necrosis (RTS-induced liver damage; EX, GA or RTS alone): 0; Overall (sum of the scores from all individual parameters) (RTS-induced liver damage; EX, GA or RTS alone): 0; Sinusoid fibrosis (RTS-induced liver damage; EX, GA or RTS alone): 0; Sinusoidal dilation (RTS-induced liver damage; EX, GA or RTS alone): 0; Sinusoidal hemorrhage (RTS-induced liver damage; EX, GA or RTS alone): 0; Subendothelial fibrosis (RTS-induced liver damage; EX, GA or RTS alone): 0; Subendothelial hemorrhage (RTS-induced liver damage; EX, GA or RTS alone): 0; RTS-induced hemorrhage and necrosis (RTS-induced liver damage; both single and multiple doses + RTS): significantly ameliorated; Apoptotic bodies (RTS-induced liver damage; [1]): 0; Central vein endothelial damage (RTS-induced liver damage; [1]): 1; Coagulative necrosis (RTS-induced liver damage; [1]): 0; Overall (sum of the scores from all individual parameters) (RTS-induced liver damage; [1]): 2-5; Sinusoid fibrosis (RTS-induced liver damage; [1]): 0; Sinusoidal dilation (RTS-induced liver damage; [1]): 1-2; Sinusoidal hemorrhage (RTS-induced liver damage; [1]): 0-1; Subendothelial fibrosis (RTS-induced liver damage; [1]): 0; Subendothelial hemorrhage (RTS-induced liver damage; [1]): 0-1; Apoptotic bodies (RTS-induced liver damage; [2]): 0; Central vein endothelial damage (RTS-induced liver damage; [2]): 1; Coagulative necrosis (RTS-induced liver damage; [2]): 1; Overall (sum of the scores from all individual parameters) (RTS-induced liver damage; [2]): 6-7; Sinusoid fibrosis (RTS-induced liver damage; [2]): 0; Sinusoidal dilation (RTS-induced liver damage; [2]): 2; Sinusoidal hemorrhage (RTS-induced liver damage; [2]): 1; Subendothelial fibrosis (RTS-induced liver damage; [2]): 0; Subendothelial hemorrhage (RTS-induced liver damage; [2]): 1-2; histopathological examination of liver (RTS-induced liver damage; substance alone): No obvious liver damage; Lineweaver-Burk Slope (rat CYP3A1; GA 10 µM): 1.424±0.040; Lineweaver-Burk Y-intercept when X=0.0 (rat CYP3A1; GA 10 µM): 0.174±0.017; Vmax of nifedipine metabolism (rat CYP3A1; GA 10 µM): 6.326±0.079 nmol/min/mg protein; Lineweaver-Burk Slope (rat CYP3A1; GA 25 µM): 2.671±0.041; Lineweaver-Burk Y-intercept when X=0.0 (rat CYP3A1; GA 25 µM): 0.144±0.018; Vmax of nifedipine metabolism (rat CYP3A1; GA 25 µM): 6.586±0.083 nmol/min/mg protein; Lineweaver-Burk Slope (rat CYP3A1; GA 50 µM): 4.916±0.064; Lineweaver-Burk Y-intercept when X=0.0 (rat CYP3A1; GA 50 µM): 0.137±0.028; Vmax of nifedipine metabolism (rat CYP3A1; GA 50 µM): 6.473±0.146 nmol/min/mg protein; reduction of AUC0–1440min of pyrrole-protein adducts (pyrrole-protein adducts): 16.2%
